Results taken from US8044071B2, “Method for reducing side effects of CB2 receptor agonist therapy using a combination of a selective CB2 receptor agonist and a selective CB1 receptor antagonist” (Abbott Laboratories, priority 2007, dated 2011).
Read-outs that look alike come from different tables or passages of the source.

Legend:
human CB1 = molecular target: T1, human CB1 (Homo sapiens, UniProt P21554); assay: CB1 radioligand binding assay ([3H]CP-55,940 competition)
T1 construct: purchased Perkin Elmer; host or cells: HEK293 membranes
Description: To determine the selectivity (Ki) of the compounds of the present application for CB2 receptors relative to CB1 receptors, radioligand binding assays are performed, which are described herein.
For CB1 radioligand binding assay HEK293 human CB1 membranes were purchased from Perkin Elmer. Binding was initiated by the addition of membranes (8-12 μg per well) into wells (Scienceware 96-well DeepWell plate, VWR, West Chester, Pa.) containing [^3H]CP-55,940 (120 Ci/mmol, Perkin Elmer, Boston, Mass.) and a sufficient volume of assay buffer (50 mM Tris, 2.5 mM EDTA, 5 mM MgCl2, and 0.5 mg/mL fatty acid free BSA, pH 7.4) to bring the total volume to 250 μL. After incubation (30° C. for 90 minutes), binding was terminated by the addition of 300 μL per well of cold assay buffer and rapid vacuum filtration (FilterMate Cell Harvester, Perkin Elmer, Boston, Mass.) through a UniFilter-96 GF/C filter plate (Perkin Elmer, Boston, Mass.) (pre-soaked in 0.3% PEI at least 3 hours), followed by five washes with cold assay buffer. The bound activity was counted in the TopCount using Microscint-20 (both from Perkin Elmer, Boston, Mass.). Competition experiments were conducted with 1 nM [^3H]CP-55,940 and five concentrations (1 nM to 10 μM) of displacing ligands. The addition of 10 μM unlabeled CP-55,940 (Tocris, Ellisville, Mo.) was used to assess nonspecific binding.

mean arterial pressure = assay: Mean arterial pressure in anesthetized rats; assay type: in vivo; conditions: anesthetized rat
Description: Male Sprague-Dawley rats were anesthetized with the long acting barbiturate, Inactin. Catheters were placed in the femoral artery for measurement of MAP and HR. Additional catheters were placed in the femoral vein for compound administration and saline infusion to maintain hydration. Following a 30-minute control period, vehicle (PEG400), compound B (vehicle: PEG400; 2 ml/kg) or CB2 agonist B (vehicle: PEG400; 2 ml/kg) plus CB1 antagonist rimonabant (vehicle: PEG400; 1 ml/kg) was administered intravenously over a 30-minute infusion. When administered simultaneously, compound B and rimonabant were infused individually using separate syringes. The doses tested were 1.0 mg/kg for compound B and 3.2 mg/kg for rimonabant. Data is expressed as mean from 3 rats ±sem. […] These effects indicate that the reduction in blood pressure by CB2 agonist B results from its residual activation of the CB1 receptor.

hind limb grip force = assay: Grip force behavior (hind limb); assay type: in vivo; conditions: rat, 30 μmol/kg i.p.
Description: Adverse effects can be assessed by measurements of Grip Force (GF) Behavior. Measurements of hind limb grip force are conducted by recording the maximum compressive force exerted on the hind limb strain gauge setup, in a commercially available grip force measurement system (Columbus Instruments, Columbus, Ohio). During testing, animals are gently restrained by grasping around its rib cage and then allowed to grasp the wire mesh frame (10×12 cm^2) attached to the strain gauge. The experimenter then moves the animal in a rostral-to-caudal direction until the grip is broken. Each animal is sequentially tested twice at approximately 2-3 min interval to obtain a raw mean grip force (CFmax). This raw mean grip force data is in turn converted to a maximum hindlimb compressive force (CFmax) (gram force)/kg body weight for each animal. A group mean±S.E.M. for CFmax/kg body weight is calculated. A group of age-matched naïve animals are added to each experiment and the data obtained from the different dose groups for each compound—or compound combination—being tested are compared to the naïve group (assigned as being 100% normal). […]
Using the grip force behavior assay, the effects of CB2 agonist B were evaluated after the administration of vehicle or the CB1 antagonist rimonabant. […]

T1 sequence (P21554 whole entry): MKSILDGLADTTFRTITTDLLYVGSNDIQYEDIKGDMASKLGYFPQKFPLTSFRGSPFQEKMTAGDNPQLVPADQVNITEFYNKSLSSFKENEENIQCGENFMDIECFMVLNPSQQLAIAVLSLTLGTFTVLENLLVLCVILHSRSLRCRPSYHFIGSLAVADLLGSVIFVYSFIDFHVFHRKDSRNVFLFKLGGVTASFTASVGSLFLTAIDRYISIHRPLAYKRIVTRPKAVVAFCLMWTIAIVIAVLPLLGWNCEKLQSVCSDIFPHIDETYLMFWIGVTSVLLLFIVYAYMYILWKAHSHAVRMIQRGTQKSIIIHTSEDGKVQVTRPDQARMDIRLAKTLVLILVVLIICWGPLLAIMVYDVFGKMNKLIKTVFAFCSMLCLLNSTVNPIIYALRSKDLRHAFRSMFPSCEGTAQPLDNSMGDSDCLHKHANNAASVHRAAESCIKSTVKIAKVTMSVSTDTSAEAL

Structure (SMILES)	Ki (human CB1)	effect on mean arterial pressure (MAP), agonist with rimonabant (mean arterial pressure; 1.0 mg/kg i.v. plus rimonabant 3.2 mg/kg i.v., 30-minute infusion)	effect on mean arterial pressure (MAP), agonist alone (mean arterial pressure; 1.0 mg/kg intravenously over 30-minute infusion)	Ki (human CB1; HEK293 human CB1 membranes, 1 nM [3H]CP-55,940, read-out: Ki for CB1 receptors)	reduction of grip force, agonist after rimonabant (hind limb grip force; rimonabant 30 μmol/kg i.p. 15 min before)	reduction of grip force, agonist after vehicle (hind limb grip force; tested 30 min after second dose)
CCCCn1cc(C(C)(C)C)s/c1=N\C(=O)c1cc(Cl)ccc1OC [compound A, (Z)—N-(5-tert-butyl-3-butylthiazol-2(3H)-ylidene)-5-chloro-2-methoxybenzamide]	3670 nM	–	–	–	–	–
COCCn1c(C)c(C)s/c1=N\C(=O)C1C(C)(C)C1(C)C [compound B, (Z)—N-(3-(2-methoxyethyl)-4,5-dimethylthiazol-2(3H)-ylidene)-2,2,3,3-tetramethylcyclopropanecarboxamide]	–	devoid of an effect on blood pressure relative to vehicle	has an effect to reduce blood pressure	273 nM	completely blocked	42%
